Several values for one entry are separate records, joined by “and”; a condition that tells them apart may be missing. Identical values can stand only once. Counter-ions that a name gives are not always drawn.
Tests used:
[1] = tested on: Staphylococcus aureus (stau); test: Example 3: colony color on chromogenic TSA II with 5% sheep blood (chromogen in medium); type: cell-based
[2] = tested on: E. coli (non-O157) (esco); type: cell-based
Candida albicans (caal) = test: Example 3: colony color on chromogenic TSA II with 5% sheep blood (chromogen in medium); type: cell-based; settings: for Colony Color: caal 10231, 24 h
Group B Strep. 12386 = test: Example 1: growth and colony color on plates surface-spread with chromogen; type: cell-based; settings: for Color / Growth: Group B Strep 12386
N. gonorrhoeae 35201 = test: as above; type: cell-based; settings: Summary of Table I; N. gonorrhoeae 35201
[3] = tested on: Streptococcus agalactiae (stag); test: Example 3: colony color on chromogenic TSA II with 5% sheep blood (chromogen in medium); type: cell-based
[4] = tested on: Pseudomonas aeruginosa (psae); test: as above; type: cell-based; settings: for Colony Color: CO2, 21 h
E. coli 25922 = test: Example 2: effect of incubation conditions on colony color formation; type: cell-based, Escherichia coli
[5] = tested on: Staphylococcus Coag Neg (step); test: Example 3: colony color on chromogenic TSA II with 5% sheep blood (chromogen in medium); type: cell-based; settings: 21 h
[6] = tested on: Aeromonas hydrophilia (aehy); test: as above; type: cell-based; settings: for Colony Color: CO2, 21 h
[7] = tested on: Gardnerella vaginalis 14019; test: Example 1: growth and colony color on plates surface-spread with chromogen; type: cell-based; settings: Summary of Table I; G. vaginalis 14014
[8] = tested on: Serratia marcescens (sema); test: Example 3: colony color on chromogenic TSA II with 5% sheep blood (chromogen in medium); type: cell-based
[9] = tested on: Branhamella catarrhalis (brca); test: as above; type: cell-based; settings: brca 25238; CO2; 21 h
Salmonella spp. (sasp) = type: cell-based
[10] = tested on: Entercoccus faecalis (enfa); test: Example 3: colony color on chromogenic TSA II with 5% sheep blood (chromogen in medium); type: cell-based; settings: for Colony Color: 21 h
S pyogenes (stpy) = test: as above; type: cell-based; settings: for Colony Color: 21 h
[11] = tested on: Klebsiella pneumoniae (klpn); test: as above; type: cell-based; settings: CO2, 21 h
Escherichia coli 25922 = test: Example 1: growth and colony color on plates surface-spread with chromogen; type: cell-based; settings: E. coli 25922
S. milleri (stmi) = test: Example 3: colony color on chromogenic TSA II with 5% sheep blood (chromogen in medium); type: cell-based
[12] = Precipitate of chromogen on pre-plated media; type: physicochemical; settings: 50 μl DMSO solution on pre-plated media
Protocol: 50 μl of each chromogen solution was added to the surface of each of the following pre-plated media (one chromogen solution per plate):
The solution was dispersed using a spreader and allowed to dry 3-4 hours in a hood.

S. pneumoniae (stpn) = test: Example 3: colony color on chromogenic TSA II with 5% sheep blood (chromogen in medium); type: cell-based
[13] = tested on: Streptococcus pneumoniae 6303; test: Example 1: growth and colony color on plates surface-spread with chromogen; type: cell-based
[14] = Summary of Table I, Group B Strep. 12386
[15] = chromogenic TSA II with 5% Sheep Blood, 0.1 g/l, 3 strains tested
[16] = chromogenic TSA II with 5% Sheep Blood, 0.1 g/l, 6 strains tested
[17] = chromogenic TSA II with 5% Sheep Blood, 0.1 g/l

## O=P(O)(O)Oc1c[nH]c2cc(Cl)c(Br)cc12 [Mag-Phos, 5-Br-6-Cl-3-indolyl-phosphate, p-touidine salt]
[1]; stau 1006, CO2, 21 h
  Colony Color: 0
[1]; stau 1007, CO2, 21 h
  Colony Color: 0
[1]; stau 1008, CO2, 21 h
  Colony Color: vlp
[1]; stau 1009, CO2, 21 h
  Colony Color: vlp
[1]; stau 25923, CO2, 24 h
  Colony Color: lp
[1]; stau 25923, air, 24 h
  Colony Color: lp
[2]
  Colony Color: lp and lgb and 0
Candida albicans (caal); CO2
  Colony Color: 0
Candida albicans (caal); air
  Colony Color: 0
Candida albicans (caal); chromogenic TSA II with 5% Sheep Blood, 0.1 g/l, 2 strains tested
  Colony Color (Summary): 0
Group B Strep. 12386; Choc II
  Color: purple
Group B Strep. 12386; [14]
  Substrates Producing Color: Mag-phos
  Substrates Producing Growth Inhibition: Slight inhib. w/ X-
Group B Strep. 12386; TSA II 5SB
  Color: purple (a)
  Growth: <
Group B Strep. 12386; TSA Plain
  Color: purple
  Growth: <
N. gonorrhoeae 35201
  Substrates Producing Growth Inhibition: Mag-phos
[3]
  Colony Color: lp
  Colony Color (Summary): +
[4]; [15]
  Colony Color (Summary): 0
[4]; psae 9027
  Colony Color: 0
[4]; psae 15442
  Colony Color: 0
[4]; psae 33607
  Colony Color: 0
E. coli 25922
  Colony Color: purple (m)
[5]; step 12228, CO2
  Colony Color: 0
[5]; step 12228, air
  Colony Color: lp
[5]; step cdc1, CO2
  Colony Color: lp
[5]; step cdc1, air
  Colony Color: lp
[5]; step cdc2, CO2
  Colony Color: 0
[5]; step cdc2, air
  Colony Color: 0
[5]; step cdc3, CO2
  Colony Color: 0
[5]; step cdc3, air
  Colony Color: 0
[5]; step cdc4, CO2
  Colony Color: lp
[5]; step cdc4, air
  Colony Color: lp
[6]; aehy 7965
  Colony Color: gp
[6]; aehy 7966
  Colony Color: gp
[6]; [15]
  Colony Color (Summary): +
[7]
  Substrates Producing Growth Inhibition: Mag-phos
[8]; chromogenic TSA II with 5% Sheep Blood, 0.1 g/l, 1 strain tested
  Colony Color (Summary): 0
[8]; sema 13880, CO2, 21 h
  Colony Color: 0
[9]
  Colony Color: 0
Salmonella spp. (sasp)
  Colony Color (Summary): +
[10]; [16]
  Colony Color (Summary): +
[10]; enfa 597, CO2
  Colony Color: lp
[10]; enfa 597, air
  Colony Color: lp
[10]; enfa 10741, CO2
  Colony Color: lp
[10]; enfa 12953, CO2
  Colony Color: lp
[10]; enfa 14506, CO2
  Colony Color: lp
[10]; enfa 29212, CO2
  Colony Color: lp
S pyogenes (stpy); [17]
  Growth vs. control: <grth
S pyogenes (stpy); stpy 1027, CO2
  Colony Color: vlp
S pyogenes (stpy); stpy 1028, CO2
  Colony Color: vlp
S pyogenes (stpy); stpy 1029, CO2
  Colony Color: vlp
S pyogenes (stpy); stpy 1030, CO2
  Colony Color: vlp
S pyogenes (stpy); stpy 19615, CO2
  Colony Color: lp
S pyogenes (stpy); stpy 19615, air
  Colony Color: lp
S pyogenes (stpy); stpy 49117, CO2
  Colony Color: lp
S pyogenes (stpy); stpy 51339, CO2
  Colony Color: lp
[11]; klpn 13883
  Colony Color: 0
[11]; klpn 33606
  Colony Color: 0
Escherichia coli 25922; Choc II
  Color: purple
Escherichia coli 25922; Summary of Table I
  Substrates Producing Color: Mag-phos
Escherichia coli 25922; TSA II 5SB
  Color: purple
Escherichia coli 25922; TSA Plain
  Color: purple
S. milleri (stmi); [17]
  Growth vs. control: no growth
S. milleri (stmi); stmi 6249, air, 21 h
  Colony Color: 0
[12]
  Precipitate when spread / placed on the plated media: somewhat insoluble
S. pneumoniae (stpn); [17]
  Growth vs. control: <growth
S. pneumoniae (stpn); [16]
  Colony Color (Summary): 0,
S. pneumoniae (stpn); stpn 1259, CO2, 21 h
  Colony Color: 0
S. pneumoniae (stpn); stpn 1260, CO2, 21 h
  Colony Color: 0
S. pneumoniae (stpn); stpn 1628, CO2, 21 h
  Colony Color: 0
S. pneumoniae (stpn); stpn 6303, CO2, 24 h
  Colony Color: 0
S. pneumoniae (stpn); stpn 6303, air, 24 h
  Colony Color: db
S. pneumoniae (stpn); stpn 6305, CO2, 24 h
  Colony Color: 0
S. pneumoniae (stpn); stpn 6305, air, 24 h
  Colony Color: 0
[13]; Summary of Table I, S. pneumoniae 6303
  Substrates Producing Growth Inhibition: Mag-phos
[13]; TSA II 5SB, S. pneu: 6303
  Growth: <
